Experiments:
[1] = molecular target: Integrin alpha-V/beta-1 (Homo sapiens, UniProt P05556+P06756); assay: Displacement of fluorescein labeled ACRGDGWC from human Integrin alphaVbeta1 preincubated for 15 mins followed by fluorescein labeled ACRGDGWC addition and measured after 1 hr by fluorescence polarization assay; format: protein-complex assay
[2] = molecular target: T1, Integrin alpha-V/beta-6 (Homo sapiens, UniProt P06756+P18564); assay: Displacement of fluorescein labeled GRGDLGRL from human Integrin alphaVbeta6 preincubated for 15 mins followed by fluorescein labeled GRGDLGRL addition and measured after 1 hr by fluorescence polarization assay; format: protein-complex assay
T1 sequence (P06756 31-889 limits assumed): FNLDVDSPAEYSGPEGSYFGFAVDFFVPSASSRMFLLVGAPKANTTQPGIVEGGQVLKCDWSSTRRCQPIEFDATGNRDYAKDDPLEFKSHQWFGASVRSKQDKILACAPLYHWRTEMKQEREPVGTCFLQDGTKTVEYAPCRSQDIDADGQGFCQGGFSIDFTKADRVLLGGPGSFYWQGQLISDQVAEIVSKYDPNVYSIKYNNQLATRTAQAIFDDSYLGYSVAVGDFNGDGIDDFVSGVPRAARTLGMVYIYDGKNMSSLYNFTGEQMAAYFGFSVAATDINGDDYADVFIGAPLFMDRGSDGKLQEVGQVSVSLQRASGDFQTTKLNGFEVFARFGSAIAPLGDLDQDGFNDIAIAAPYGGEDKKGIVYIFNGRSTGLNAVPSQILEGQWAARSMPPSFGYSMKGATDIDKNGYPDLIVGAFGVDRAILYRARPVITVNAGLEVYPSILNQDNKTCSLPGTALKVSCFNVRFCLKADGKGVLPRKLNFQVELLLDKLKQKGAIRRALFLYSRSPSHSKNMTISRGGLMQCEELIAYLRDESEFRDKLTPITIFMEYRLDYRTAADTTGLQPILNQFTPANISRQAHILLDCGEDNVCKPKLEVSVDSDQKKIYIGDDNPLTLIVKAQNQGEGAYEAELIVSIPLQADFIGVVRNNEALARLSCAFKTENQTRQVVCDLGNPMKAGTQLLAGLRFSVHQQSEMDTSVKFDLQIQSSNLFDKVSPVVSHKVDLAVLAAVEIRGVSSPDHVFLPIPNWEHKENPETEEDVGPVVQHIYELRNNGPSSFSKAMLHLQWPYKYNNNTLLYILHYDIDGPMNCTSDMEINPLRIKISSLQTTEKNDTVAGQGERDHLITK
T1 sequence (P06756 891-1048 limits assumed): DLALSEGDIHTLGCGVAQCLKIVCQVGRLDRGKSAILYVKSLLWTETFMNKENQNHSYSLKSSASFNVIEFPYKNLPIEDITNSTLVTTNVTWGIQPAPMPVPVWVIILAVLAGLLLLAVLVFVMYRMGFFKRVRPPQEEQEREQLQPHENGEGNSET
T1 sequence (P18564 22-788 limits assumed): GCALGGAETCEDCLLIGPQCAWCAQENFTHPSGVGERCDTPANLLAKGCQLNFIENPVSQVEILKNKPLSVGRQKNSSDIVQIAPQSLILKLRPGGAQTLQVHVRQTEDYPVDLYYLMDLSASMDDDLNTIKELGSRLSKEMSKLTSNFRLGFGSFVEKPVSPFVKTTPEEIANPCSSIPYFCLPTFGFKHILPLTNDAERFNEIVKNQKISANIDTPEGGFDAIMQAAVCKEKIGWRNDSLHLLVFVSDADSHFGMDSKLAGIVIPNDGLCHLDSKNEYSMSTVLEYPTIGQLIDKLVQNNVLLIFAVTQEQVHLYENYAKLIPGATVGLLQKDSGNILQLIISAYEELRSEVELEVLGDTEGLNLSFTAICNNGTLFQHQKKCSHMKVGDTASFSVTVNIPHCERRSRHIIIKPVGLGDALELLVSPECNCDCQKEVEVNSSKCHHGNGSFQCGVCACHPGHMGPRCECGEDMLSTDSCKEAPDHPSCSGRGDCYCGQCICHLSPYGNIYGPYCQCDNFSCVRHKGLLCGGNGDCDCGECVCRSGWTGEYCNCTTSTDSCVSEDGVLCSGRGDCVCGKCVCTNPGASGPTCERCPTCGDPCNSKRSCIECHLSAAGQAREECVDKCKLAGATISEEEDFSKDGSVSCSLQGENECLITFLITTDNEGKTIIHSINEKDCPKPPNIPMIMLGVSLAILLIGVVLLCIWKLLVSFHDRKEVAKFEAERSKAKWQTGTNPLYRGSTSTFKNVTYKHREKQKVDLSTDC

[3] = Octanol/water partition coefficient, logD of the compound; format: physicochemical
[4] = molecular target: Integrin alpha-V/beta-8 (Homo sapiens, UniProt P06756+P26012); assay: Displacement of fluorescein labeled GRGDLGRL from human Integrin alphaVbeta8 preincubated for 15 mins followed by fluorescein labeled GRGDLGRL addition and measured after 1 hr by fluorescence polarization assay; format: protein-complex assay
Sequence of Integrin alpha-V/beta-8 (P06756 31-889 limits assumed): as the sequence (P06756 31-889 limits assumed) above
Sequence of Integrin alpha-V/beta-8 (P06756 891-1048 limits assumed): as the sequence (P06756 891-1048 limits assumed) above
Sequence of Integrin alpha-V/beta-8 (P26012 43-769 limits assumed): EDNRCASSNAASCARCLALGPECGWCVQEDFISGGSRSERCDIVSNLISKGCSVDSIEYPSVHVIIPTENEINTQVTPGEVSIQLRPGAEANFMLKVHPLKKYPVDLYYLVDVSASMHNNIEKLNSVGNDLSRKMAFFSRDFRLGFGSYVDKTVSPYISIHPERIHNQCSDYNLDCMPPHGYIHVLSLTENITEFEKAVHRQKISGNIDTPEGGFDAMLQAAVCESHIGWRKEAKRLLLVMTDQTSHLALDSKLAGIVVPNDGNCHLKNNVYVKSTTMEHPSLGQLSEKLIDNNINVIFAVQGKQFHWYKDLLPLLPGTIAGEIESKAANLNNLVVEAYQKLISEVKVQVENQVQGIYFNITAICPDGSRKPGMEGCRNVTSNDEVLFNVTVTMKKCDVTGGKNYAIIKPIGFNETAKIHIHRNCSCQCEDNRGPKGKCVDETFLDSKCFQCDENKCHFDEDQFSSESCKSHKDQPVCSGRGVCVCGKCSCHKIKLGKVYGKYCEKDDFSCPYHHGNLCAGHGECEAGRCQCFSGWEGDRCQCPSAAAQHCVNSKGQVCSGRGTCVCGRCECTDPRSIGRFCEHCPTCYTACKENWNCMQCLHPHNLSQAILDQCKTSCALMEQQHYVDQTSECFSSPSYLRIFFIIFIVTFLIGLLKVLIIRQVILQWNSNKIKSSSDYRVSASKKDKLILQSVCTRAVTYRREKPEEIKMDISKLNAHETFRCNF

[5] = molecular target: T1, Integrin alpha-V/beta-6; assay: Binding affinity to human Integrin alphaVbeta6 overexpressed in HEK293 cells incubated for 15 mins in presence of human serum by flow cytometry assay; format: cell-based
[6] = Clearance in Sprague-Dawley rat at 1 mg/kg, iv measured upto 24 hrs by LC/MS-MS analysis; format: ADME, organism-based; conditions: in vivo
[7] = species on record: Homo sapiens; assay: Selectivity ratio of IC50 for displacement of fluorescein labeled ACRGDGWC from human Integrin alphaVbeta1 to IC50 for displacement of fluorescein labeled GRGDLGRL from human Integrin alphaVbeta6
[8] = Oral bioavailability in Sprague-Dawley rat at 10 mg/kg measured upto 24 hrs by LC/MS-MS analysis; format: ADME, organism-based; conditions: in vivo
[9] = species on record: Homo sapiens; assay: Selectivity ratio of IC50 for displacement of fluorescein labeled GRGDLGRL from human Integrin alphaVbeta8 to IC50 for displacement of fluorescein labeled GRGDLGRL from human Integrin alphaVbeta6
[10] = Half-life in Sprague-Dawley rat at 1 mg/kg, iv measured upto 24 hrs by LC/MS-MS analysis; format: ADME, organism-based; conditions: in vivo
[11] = Volume of distribution at steady state in Sprague-Dawley rat at 1 mg/kg, iv measured upto 24 hrs by LC/MS-MS analysis; format: ADME, organism-based; conditions: in vivo, read-out: Vdss

Sequence of Integrin alpha-V/beta-1 (P05556 21-798 limits assumed): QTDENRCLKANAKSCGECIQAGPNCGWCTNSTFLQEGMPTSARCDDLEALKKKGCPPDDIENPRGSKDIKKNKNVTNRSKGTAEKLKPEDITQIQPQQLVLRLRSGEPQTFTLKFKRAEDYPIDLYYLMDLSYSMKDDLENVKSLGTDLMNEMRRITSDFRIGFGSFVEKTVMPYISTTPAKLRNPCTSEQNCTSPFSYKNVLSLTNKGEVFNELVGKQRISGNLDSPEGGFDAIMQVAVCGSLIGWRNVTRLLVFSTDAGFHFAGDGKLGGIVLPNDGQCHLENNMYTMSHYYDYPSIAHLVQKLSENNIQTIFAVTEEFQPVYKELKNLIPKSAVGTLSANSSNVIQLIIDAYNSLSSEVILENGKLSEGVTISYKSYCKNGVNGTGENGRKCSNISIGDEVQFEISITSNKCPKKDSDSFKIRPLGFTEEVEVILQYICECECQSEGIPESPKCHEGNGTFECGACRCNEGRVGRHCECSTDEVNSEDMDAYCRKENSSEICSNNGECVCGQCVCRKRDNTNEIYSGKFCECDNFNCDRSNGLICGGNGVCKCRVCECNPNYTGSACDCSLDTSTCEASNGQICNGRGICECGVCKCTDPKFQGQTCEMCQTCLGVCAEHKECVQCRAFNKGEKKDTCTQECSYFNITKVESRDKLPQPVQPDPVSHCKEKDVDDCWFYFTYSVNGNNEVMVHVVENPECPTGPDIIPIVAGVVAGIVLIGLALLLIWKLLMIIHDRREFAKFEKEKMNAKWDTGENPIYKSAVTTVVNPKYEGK
Sequence of Integrin alpha-V/beta-1 (P06756 31-889 limits assumed): as the sequence (P06756 31-889 limits assumed) above
Sequence of Integrin alpha-V/beta-1 (P06756 891-1048 limits assumed): as the sequence (P06756 891-1048 limits assumed) above

SMILES	IC50 [1]	IC50 [2]	logD [3]	IC50 [4]	IC50 [5]	clearance [6]	Ratio IC50 [7]	bioavailability [8]	Ratio IC50 [9]	half-life [10]	Vd [11]
O=C(NCCCc1ccc2c(n1)NCCC2)C1CCN([C@@H](C(=O)O)c2ccccc2)CC1	30000 nM	16000 nM									
O=C(O)CN1CC[C@H](C(=O)NCCCc2ccc3c(n2)NCCC3)C1	1600 nM	4300 nM									
O=C(O)[C@H](c1cc(F)ccc1[C@H]1CCCO1)N1CC[C@@H](OCCCCc2ccc3c(n2)NCCC3)C1	193 nM	12 nM	1.4	155 nM							
O=C(O)[C@H](c1ccccc1C1CC1)N1CC[C@@H](OCCCCCc2ccc3c(n2)NCCC3)C1	94 nM	4.4 nM	1.8	17 nM							
O=C(O)[C@H](c1cccc(C2CC2)c1)N1CC[C@@H](OCCCCc2ccc3c(n2)NCCC3)C1	1100 nM	13 nM	1.7	180 nM							
O=C(O)[C@H](c1ccccc1C1CC1)N1CC[C@@H](n2cc(CCc3ccc4c(n3)NCCC4)cn2)C1	56 nM	33 nM	1.6	100 nM							
O=C(O)[C@H](c1ccccc1C1CC1)N1CC[C@@H](Oc2ccc(Cc3ccc4c(n3)NCCC4)cc2)C1	27 nM	0.7 nM	2.4	7.7 nM							
O=C(O)[C@H](c1cc(F)ccc1C1CCOCC1)N1CC[C@@H](OCCCCc2ccc3c(n2)NCCC3)C1	120 nM	7.8 nM	1.3	100 nM	128 nM						
O=C(O)[C@H](c1cc(F)ccc1[C@@H]1CCCCO1)N1CC[C@@H](OCCCCc2ccc3c(n2)NCCC3)C1	87 nM	1.6 nM		74 nM	16 nM	29 mL/min/kg	> 50	38%	> 50	1.5 h	2.7 L/kg
CC1(C)CCO[C@H](c2ccccc2[C@@H](C(=O)O)N2CC[C@@H](OCCCCc3ccc4c(n3)NCCC4)C2)C1	570 nM	1.6 nM	2.3	410 nM	213 nM						
O=C(O)[C@H](c1cc(F)ccc1[C@@H]1CCCO1)N1CC[C@@H](OCCCCc2ccc3c(n2)NCCC3)C1	92 nM	1.9 nM	1.5	134 nM	21 nM	13 mL/min/kg	> 50	41%	> 50	1.5 h	1.2 L/kg
O=C(O)[C@H](c1ccccc1C1CC1)N1C[C@@H](F)[C@@H](OCCCCc2ccc3c(n2)NCCC3)C1	130 nM	8.5 nM	1.4	140 nM							
O=C(NCCCc1ccc2c(n1)NCCC2)[C@@H]1CCN([C@@H](C(=O)O)c2ccccc2)C1	9500 nM	93 nM		130 nM							
O=C(O)[C@H](c1ccccc1C1CCCOC1)N1CC[C@@H](OCCCCc2ccc3c(n2)NCCC3)C1 (some centres not stated)	300 nM	25 nM	1.2	180 nM							
O=C(O)[C@H](c1ccccc1C1CC1)N1CC[C@@H](OCCCCc2ccc3c(n2)NCCC3)C1	96 nM	4.6 nM	1.4	55 nM							
O=C(NCCCc1ccc2c(n1)NCCC2)C1CCN([C@H](C(=O)O)c2ccccc2)CC1	14000 nM	4100 nM	0.2								
O=C(O)[C@H](c1cc(F)ccc1C1CC1)N1CC[C@@H](OCCCCc2ccc3c(n2)NCCC3)C1	92 nM	4 nM	1.7	38 nM							
O=C(O)[C@H](c1ccc(C2CC2)cc1)N1CC[C@@H](OCCCCc2ccc3c(n2)NCCC3)C1	1600 nM	12 nM	1.7	300 nM							
O=C(O)[C@H](c1ccccc1C1CC1)N1CC[C@@H](OCCCc2ccc3c(n2)NCCC3)C1	250 nM	8.6 nM	1.2	140 nM							
O=C(O)CN1CCC(C(=O)NCCCc2ccc3c(n2)NCCC3)CC1	650 nM	1500 nM	-0.5	370 nM							
O=C(O)[C@H](c1cc(F)ccc1[C@@H]1CCOC1)N1CC[C@@H](OCCCCc2ccc3c(n2)NCCC3)C1	170 nM	4.1 nM	1	83 nM							
CC1(C)CC[C@@H](c2ccccc2[C@@H](C(=O)O)N2CC[C@@H](OCCCCc3ccc4c(n3)NCCC4)C2)OC1	830 nM	0.8 nM	1.5	430 nM	35 nM	50 mL/min/kg	1100		560	1.2 h	2.6 L/kg
CC1(C)CCCC(c2ccccc2[C@@H](C(=O)O)N2CC[C@@H](OCCCCc3ccc4c(n3)NCCC4)C2)O1 (some centres not stated)	72 nM	4.6 nM	2.1	150 nM							
O=C(O)[C@H](c1cc(F)ccc1[C@H]1CCCCO1)N1CC[C@@H](OCCCCc2ccc3c(n2)NCCC3)C1	130 nM	8 nM	1.7	130 nM							
O=C(O)CN1CC[C@@H](C(=O)NCCCc2ccc3c(n2)NCCC3)C1	4000 nM	790 nM	-0.6								
O=C(O)[C@H](c1ccccc1)N1CC[C@@H](OCCCCc2ccc3c(n2)NCCC3)C1	3900 nM	80 nM	0.7	1100 nM							
O=C(O)[C@H](c1cc(F)ccc1[C@H]1CCOC1)N1CC[C@@H](OCCCCc2ccc3c(n2)NCCC3)C1	110 nM	2.8 nM	1.1	190 nM	90 nM						
CC1(C)CC[C@@H](c2ccc(F)cc2[C@@H](C(=O)O)N2CC[C@@H](OCCCCc3ccc4c(n3)NCCC4)C2)OC1	690 nM	0.5 nM	2.6	140 nM	41 nM	30 mL/min/kg		25%		1.2 h	2.4 L/kg
O=C(NCCCc1ccc2c(n1)NCCC2)[C@@H]1CCN([C@H](C(=O)O)c2ccccc2)C1	1900 nM	37 nM	0.4	78 nM			> 50				
